Data as given in PubChem BioAssay AID330 (DTP/NCI, 2004).
Several values for one entry are separate records, joined by “and”; a condition that tells them apart may be missing. Equal values may be shown once. Toxic doses and inconclusive results are not listed.

Test system: P388 leukemia ip, CD2F1 mice, survival T/C
Test: NCI In Vivo Anticancer Drug Screen. Data for tumor model P388 Leukemia (intraperitoneal) in CD2F1 (CDF1) mice
Details: endpoint: median survival time, higher = longer survival
How it was run: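 Mice carrying the transplanted tumor received test compound or vehicle. Survival was recorded in each group, and the value is the treated-group measurement divided by that of the vehicle-treated control group.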

[1] = dose: 50.0 mg/kg/injection, schedule: Q01DX005 (ip), vehicle: Klucel (hydroxypropylcellulose) (HPC)
[2] = dose: 100.0 mg/kg/injection, schedule: Q01DX005 (ip), vehicle: Klucel (hydroxypropylcellulose) (HPC)
[3] = dose: 200.0 mg/kg/injection, schedule: Q01DX005 (ip), vehicle: Klucel (hydroxypropylcellulose) (HPC)
[4] = dose: 60.0 mg/kg/injection, schedule: Q01DX005 (ip), vehicle: saline with Tween-80
[5] = dose: 120.0 mg/kg/injection, schedule: Q01DX005 (ip), vehicle: saline with Tween-80
[6] = dose: 240.0 mg/kg/injection, schedule: Q01DX005 (ip), vehicle: saline with Tween-80

FC(F)(F)C1(C(F)(F)F)O[Te]2(OC1(C(F)(F)F)C(F)(F)F)OC(C(F)(F)F)(C(F)(F)F)C(C(F)(F)F)(C(F)(F)F)O2
T/C (dose: 6.25 mg/kg/injection, schedule: Q01DX005 (ip), vehicle: Klucel (hydroxypropylcellulose) (HPC)): 100 % of control
T/C (dose: 12.5 mg/kg/injection, schedule: Q01DX005 (ip), vehicle: Klucel (hydroxypropylcellulose) (HPC)): 112 % of control

C[C@@H]1CC(=O)C[C@H]2CCCCN21
T/C (dose: 12.5 mg/kg/injection, schedule: Q01DX005 (ip), vehicle: saline): 102 % of control
T/C (dose: 25.0 mg/kg/injection, schedule: Q01DX005 (ip), vehicle: saline): 103 % of control
T/C (dose: 50.0 mg/kg/injection, schedule: Q01DX005 (ip), vehicle: saline): 105 % of control

CCOC(CCl)OCC
T/C (dose: 6.25 mg/kg/injection, schedule: Q01DX009 (ip), vehicle: saline): 103 % of control and 105 % of control

COc1ccc2cc1-c1cc(ccc1O)CCC(O)CC1CCCC(CC(O)CC2)N1 (stereo unspecified)
T/C (dose: 15.0 mg/kg/injection, schedule: Q01DX009 (ip), vehicle: Klucel (hydroxypropylcellulose) (HPC)): 100 % of control
T/C (dose: 30.0 mg/kg/injection, schedule: Q01DX009 (ip), vehicle: Klucel (hydroxypropylcellulose) (HPC)): 107 % of control

C=C1CC2(CCCC3(C2)OCCO3)OC1=O (stereo unspecified)
T/C [1]: 95 % of control
T/C [2]: 95 % of control
T/C [3]: 106 % of control

CN(C)C(=O)Nc1ccc(-c2cccnc2)cc1
T/C (dose: 60.0 mg/kg/injection, schedule: Q01DX005 (ip), vehicle: saline): 109 % of control
T/C (dose: 120.0 mg/kg/injection, schedule: Q01DX005 (ip), vehicle: saline): 107 % of control
T/C (dose: 240.0 mg/kg/injection, schedule: Q01DX005 (ip), vehicle: saline): 93 % of control

CSc1ccc(NC(=S)SCc2ccc(Cl)cc2)cc1Cl
T/C (dose: 50.0 mg/kg/injection, schedule: Q01DX009 (ip), vehicle: suspension in saline): 108 % of control
T/C (dose: 100.0 mg/kg/injection, schedule: Q01DX009 (ip), vehicle: suspension in saline): 117 % of control
T/C (dose: 200.0 mg/kg/injection, schedule: Q01DX009 (ip), vehicle: suspension in saline): 116 % of control

CCCCCCCCCCCCCCCCCCOC(=O)C1CCCN1 (stereo unspecified)
T/C (dose: 100.0 mg/kg/injection, schedule: Q04DX002 (ip), vehicle: Klucel (hydroxypropylcellulose) (HPC)): 101 % of control
T/C (dose: 200.0 mg/kg/injection, schedule: Q04DX002 (ip), vehicle: Klucel (hydroxypropylcellulose) (HPC)): 99 % of control
T/C (dose: 400.0 mg/kg/injection, schedule: Q04DX002 (ip), vehicle: Klucel (hydroxypropylcellulose) (HPC)): 94 % of control

Nc1nnc(/C=C/c2ccc(Cl)cc2)o1
T/C [4]: 98 % of control
T/C [5]: 105 % of control
T/C [6]: 106 % of control

CC1NC(CCCCCCCCCCC2=CC(CCCCCCCCCCC3CCC(O)C(C)N3)C3CCCN3C2)CCC1O (stereo unspecified)
T/C (dose: 0.93 mg/kg/injection, schedule: Q01DX005 (ip), vehicle: water): 95 % of control
T/C (dose: 1.87 mg/kg/injection, schedule: Q01DX005 (ip), vehicle: water): 96 % of control
T/C (dose: 3.75 mg/kg/injection, schedule: Q01DX005 (ip), vehicle: water): 91 % of control and 92 % of control and 94 % of control
T/C (dose: 7.5 mg/kg/injection, schedule: Q01DX005 (ip), vehicle: water): 93 % of control

COC(=O)/C(=C/c1c[nH]c2ccccc12)NC=O
T/C (dose: 60.0 mg/kg/injection, schedule: Q01DX005 (ip), vehicle: Klucel (hydroxypropylcellulose) (HPC)): 97 % of control
T/C (dose: 120.0 mg/kg/injection, schedule: Q01DX005 (ip), vehicle: Klucel (hydroxypropylcellulose) (HPC)): 97 % of control
T/C (dose: 240.0 mg/kg/injection, schedule: Q01DX005 (ip), vehicle: Klucel (hydroxypropylcellulose) (HPC)): 92 % of control

CC(C)N(C(=O)c1ccc([Si](C)(C)C)c(C(=O)N(C(C)C)C(C)C)n1)C(C)C
T/C [4]: 98 % of control
T/C [5]: 94 % of control
T/C [6]: 98 % of control

O=c1[nH]c(=O)n(Cl)c(=O)n1Cl
T/C (dose: 50.0 mg/kg/injection, schedule: Q01DX009 (ip), vehicle: Klucel (hydroxypropylcellulose) (HPC)): 116 % of control
T/C (dose: 100.0 mg/kg/injection, schedule: Q01DX009 (ip), vehicle: Klucel (hydroxypropylcellulose) (HPC)): 99 % of control

O=C(O)/C(Cl)=C(/Cl)C(=O)C(Cl)(Cl)Cl
T/C (dose: 3.13 mg/kg/injection, schedule: Q01DX009 (ip), vehicle: distilled water + Tween-80): 108 % of control
T/C (dose: 25.0 mg/kg/injection, schedule: Q01DX009 (ip), vehicle: distilled water + Tween-80): 155 % of control
T/C (dose: 50.0 mg/kg/injection, schedule: Q01DX009 (ip), vehicle: distilled water + Tween-80): 155 % of control

O=C1C2Nc3ccccc3N=C2OC1c1ccccc1 (stereo unspecified)
T/C [1]: 96 % of control
T/C [2]: 96 % of control
T/C [3]: 100 % of control

CCOC(=O)C(C)(OCC)OCC
T/C (dose: 25.0 mg/kg/injection, schedule: Q01DX009 (ip), vehicle: saline with Tween-80): 101 % of control
T/C (dose: 50.0 mg/kg/injection, schedule: Q01DX009 (ip), vehicle: saline with Tween-80): 98 % of control
T/C (dose: 100.0 mg/kg/injection, schedule: Q01DX009 (ip), vehicle: saline with Tween-80): 98 % of control
T/C (dose: 200.0 mg/kg/injection, schedule: Q01DX009 (ip), vehicle: saline with Tween-80): 98 % of control
T/C (dose: 400.0 mg/kg/injection, schedule: Q01DX009 (ip), vehicle: saline with Tween-80): 100 % of control
